Converted amounts (≈) assume the structure as drawn.
tested on: E. coli (APH(3′)Ia); experiment: MIC 50, broth micro-dilution, E. coli expressing APH(3′)Ia; assay type: cell-based, Escherichia coli; conditions: ATCC25922 harboring plasmid encoding APH(3′)Ia
Procedure: Plasmid transformation. Approximately 500 ng of the pET-9b(+) (Cat. No. 69432-3, Merck), pAT21-1 (provided by Prof. Dr. Patrice Courvalin, M.D., Pasteur Institute, France; prepared according to Trieu-Cuot et. al, Mol. Gen. Genet. 198(2), 348 (1985)), pBluescript::AAC(6′)-Ie/APH(2″)-Ia (provided by Prof. Dr. Sergei Vakulenko, M.D., University of Notre Dame, Ind., USA; prepared according to S. B. Vakulenko et. al., J. Biol. Chem. 287 (52), 43262 (2012)), pBlue_lpp_aacC3_rrnC and pSET152 (Cat. No. PVT3395, Life Science Market; prepared according to Bierman et al., Gene 116 (1), 43 (1992)) plasmids, encoding APH(3′)-Ia (SEQ ID NO:2), APH(3′)-IIIa (SEQ ID NO:3), AAC(6′)Ie-APH(2″)-Ia (SEQ ID NO:4), AAC(3)-III (SEQ ID NO:1), and AAC(3)-IV (SEQ ID NO:5) respectively, were individually incubated in a vial of competent cells for 15 min on ice. The cells were subsequently heated to 42° C. for 90 s, and cooled on ice for 1 min. After addition of 900 μL LB, the cells were incubated for 1 h at 37° C. and 200 rpm. Cells were plated on LB-agar supplemented with 50 μg/mL KanaA and incubated for 18 h at 37° C. The next day, a single colony was inoculated in 5 mL LB supplemented with 50 μg/mL and grown for 18 h at 37° C. and 200 rpm. A 200 μL sample of each culture was diluted with 200 μL of 40% v/v glycerol in water, and stored at −80° C. The plasmid was purified from the remaining culture using the Plasmid Miniprep kit. Plasmid DNA was investigated by Eurofins Genomics (Germany) to confirm the identity of the aminoglycoside resistance genes.
3.1 Against E. coli Strains
Tested reference compounds. Amikacin sulfate (Cat. No. 01693, Chem-Impex), Gentamicin sulfate (Cat. No. G4918, Sigma Aldrich).
Microbial strains. E. coli ATCC 25922, E. coli ATCC 25922/pET-9b(+), E. coli ATCC 25922/pAT21-1, E. coli ATCC 25922/pBluescript::AAC(6′)-Ie/APH(2″)-Ia, E. coli ATCC 25922/pBlue_lpp_aacC3_rrnC, E. coli ATCC 25922/pSET152.
Culture media and equipment. BBL™ Mueller Hinton Broth 2 (Lot. BCBW1143, Cat. No. 70192, Sigma); Kanamycin A (Cat. No. A1493, AppliChem); 96-well deep well plate, 1 mL (Cat. No. 0030506.200, Eppendorf); Plate lids (Cat. No. 0030131.525, Eppendorf); 96-well plate, F-bottom (Cat. No. 781602, Brand; Incubator, Infors Multitron Pro); Laminar flow (Heraeus KS12); UV/VIS meter (Eppendorf BioPhotometer Plus); Platereader (Tecan Sunrise).
Compound preparation. Compounds were prepared in MH2 media at a concentration of 5 mM and stored at 4° C. For testing, solutions of 128 μM were prepared in MH2. Out of these working solutions, 400 μL was transferred to wells in the first column of 96-well deep well plates. Each compound was transferred in triplicate. Plates were previously filled with 200 μL of MH2 media in all wells except for the wells in the first column. After compound and antibiotic addition, the compounds were serial two-fold diluted by transferring 200 μL from the first to the second column, then from the second to the third column and so on. Finally, 200 μL was removed from the last column.
Inoculum preparation. Microorganisms used were all revived from 20% glycerol (40% v/v glycerol in water was diluted with MH2) storage at −80° C. by inoculating them in 5 mL MH2. inoculums of E. coli containing a plasmid were selected for by adding 50 μg/mL KanaA. The Inoculums were grown to an optical density (measured by UV/Vis spectroscopy) of 0.6-0.8 at 600 nm. Out of these suspensions, actual inoculums were prepared by diluting them to an optical density (OD) of 0.1 in MH2 media. From these inoculums, 200 μL was transferred to each well, resulting in a final compound concentration range of 64 μM-31.3 nM. All plates were incubated at 900 rpm and 70% rH for 18 h at 37° C.
MIC determination. After 18 h of growth, 200 μL was transferred to a 96-well F-bottom plate. The optical density was determined by a plate reader at 600 nm, with 10 s shaking before reading. Triplicate measurements were averaged, and a growth curve was plotted in Microsoft Excel. […]

`NCCC(O)C(=O)NC1CC(N)C(OC2OC(CN)C(O)C(O)C2N)C(O)C1OC1OC(CO)C(O)C(N)C1O` (centres unmarked) [ABX4001, KanaB-AHB] and `NCC[C@H](O)C(=O)N[C@@H]1CC(N)[C@@H](O[C@H]2OC(CN)[C@@H](O)[C@@H](O)C2N)[C@H](O)C1OC1O[C@H](CO)[C@@H](O)C(N)[C@H]1O` (stereo partly drawn) [ABX4002, 3′Epi-KanaB-AHB] cannot be ordered by “MIC50” value: 8 µM (≈ 4.68 µg/mL) for the first, 8 to 16 µM for the second.

First: N=C(N)NC1[C@@H](O)C(OC2[C@@H](F)[C@H](O[C@H]3OC(CN)[C@@H](O)[C@H](O)C3N)C(N)C[C@H]2NC(=O)[C@@H](O)CCN)O[C@H](CO)[C@H]1O (some centres unmarked) [ABX4006, KanaB-AHB-F-Gua]
Second: N=C(N)N[C@@H]1[C@@H](O)[C@@H](O[C@@H]2[C@@H](O)[C@H](O[C@H]3O[C@H](CN)[C@@H](O)[C@@H](O)[C@H]3N)[C@@H](N)C[C@H]2NC(=O)[C@@H](O)CCN)O[C@H](CO)[C@H]1O [ABX4005, 3′Epi-KanaB-AHB-Gua]
The “MIC50” value of the first is lower: 1 to 2 µM for the first, 16 µM (≈ 10 µg/mL) for the second.

Compared with `N=C(N)NC1[C@@H](O)C(OC2[C@@H](O)[C@H](O[C@H]3OC(CN)[C@@H](O)CC3N)C(N)C[C@H]2NC(=O)[C@@H](O)CCN)O[C@H](CO)[C@H]1O` (some centres unmarked) [ABX5005, Tobra-AHB-Gua], `N=C(N)NC1[C@@H](O)C(OC2[C@@H](O)[C@H](O[C@H]3OC(CN)[C@@H](O)[C@H](O)C3N)C(N)C[C@H]2NC(=O)[C@@H](O)CCN)O[C@H](CO)[C@H]1O` (some centres unmarked) [ABX4009, KanaB-AHB-Gua] is higher in “MIC50” value: 2 to 4 µM for the first, 8 µM (≈ 5.01 µg/mL) for the second.

Compared with `N=C(N)NC1[C@@H](O)C(OC2[C@@H](F)[C@H](O[C@H]3OC(CN)[C@@H](O)[C@H](O)C3N)C(N)C[C@H]2NC(=O)[C@@H](O)CCN)O[C@H](CO)[C@H]1O` (stereo partly drawn) [ABX4004, 3′epi-KanaB-AHB-F-Gua], `NCC[C@H](O)C(=O)N[C@@H]1CC(N)[C@@H](O[C@H]2OC(CN)[C@@H](O)[C@@H](O)C2N)[C@H](F)C1OC1O[C@H](CO)[C@@H](O)C(N)[C@H]1O` (stereo partly drawn) [ABX4003, 3′Epi-KanaB-AHB-F] is higher in “MIC50” value: 4 µM (≈ 2.51 µg/mL) for the first, 8 to 16 µM for the second.

First: NCC[C@H](O)C(=O)N[C@@H]1CC(N)[C@@H](O[C@H]2OC(CN)[C@@H](O)CC2N)[C@H](F)C1OC1O[C@H](CO)[C@@H](O)C(N)[C@H]1O (some centres unmarked) [ABX5024, Tobra-AHB-F]
Second: NCCC(O)C(=O)NC1CC(N)C(OC2OC(CN)C(O)C(O)C2O)C(F)C1OC1OC(CO)C(O)C(N)C1O (stereo not drawn) [ABX3005, 3′Epi-KanaA-AHB-F]
The “MIC50” value of the first is lower: 2 to 4 µM for the first, 8 to 16 µM for the second.

same assay, conditions: Escherichia coli, ATCC25922, ATCC25922 harboring plasmid encoding APH(3′)Ia

`N=C(NCCN)NC1C(O)[C@@H](CO)OC(OC2C(F)[C@H](O[C@H]3OC(CN)[C@@H](O)CC3N)C(N)C[C@H]2NC(=O)[C@@H](O)CCN)[C@@H]1O` (some centres unmarked) [ABX5020, Tobra-AHB-F-Gua-2-amino-ethyl] and `N=C(NCCCN)NC1[C@@H](O)C(OC2[C@@H](F)[C@H](O[C@H]3OC(CN)[C@@H](O)CC3N)C(N)C[C@H]2NC(=O)[C@@H](O)CCN)O[C@H](CO)[C@H]1O` (some centres unmarked) [ABX5030, Tobra-AHB-F-Gua-3-amino-propyl] cannot be ordered by MIC50: 1 to 2 µM (≈ 0.656 to 1.31 µg/mL) for the first, 2 µM (≈ 1.34 µg/mL) for the second.

`N=C(NC[C@@H]1CCNC1)NC1[C@@H](O)C(OC2[C@@H](F)[C@H](O[C@H]3OC(CN)[C@@H](O)CC3N)C(N)C[C@H]2NC(=O)[C@@H](O)CCN)O[C@H](CO)[C@H]1O` (stereo partly drawn) [ABX5039, Tobra-AHB-F-Gua (R) pyrrolidine-3-ylmethyl] and `N=C(NC[C@H]1CCNC1)NC1[C@@H](O)C(OC2[C@@H](F)[C@H](O[C@H]3OC(CN)[C@@H](O)CC3N)C(N)C[C@H]2NC(=O)[C@@H](O)CCN)O[C@H](CO)[C@H]1O` (stereo partly drawn) [ABX5042, Tobra-AHB-F-Gua (S) pyrrolidine-3-ylmethyl] are the same in MIC50: 0.25 µM (≈ 0.174 µg/mL) for the first, 0.25 µM (≈ 0.174 µg/mL) for the second.

Compared with `N=C(NCCO)NC1[C@@H](O)C(OC2[C@@H](F)[C@H](O[C@H]3OC(CN)[C@@H](O)CC3N)C(N)C[C@H]2NC(=O)[C@@H](O)CCN)O[C@H](CO)[C@H]1O` (some centres unmarked) [ABX5029, Tobra-AHB-F-Gua 2-hydroxy-ethyl], `N=C(NCCCO)NC1[C@@H](O)C(OC2[C@@H](F)[C@H](O[C@H]3OC(CN)[C@@H](O)CC3N)C(N)C[C@H]2NC(=O)[C@@H](O)CCN)O[C@H](CO)[C@H]1O` (some centres unmarked) [ABX5041, Tobra-AHB-F-Gua 3-hydroxy-propyl] is 2-fold lower in MIC50: 2 µM (≈ 1.31 µg/mL) for the first, 1 µM (≈ 0.671 µg/mL) for the second.

`N=C(NCC1CC1)NC1[C@@H](O)C(OC2[C@@H](F)[C@H](O[C@H]3OC(CN)[C@@H](O)CC3N)C(N)C[C@H]2NC(=O)[C@@H](O)CCN)O[C@H](CO)[C@H]1O` (some centres unmarked) [ABX5027, Tobra-AHB-F-Gua cyclopropylmethyl] and `N=C(NCC1CCOC1)NC1[C@@H](O)C(OC2[C@@H](F)[C@H](O[C@H]3OC(CN)[C@@H](O)CC3N)C(N)C[C@H]2NC(=O)[C@@H](O)CCN)O[C@H](CO)[C@H]1O` (some centres unmarked) [ABX5051, Tobra-AHB-F-Gua tetrahydrofuran-3-yl methyl] are the same in MIC50: 1 µM (≈ 0.667 µg/mL) for the first, 1 µM (≈ 0.697 µg/mL) for the second.

`N=C(NC[C@@H]1CNCCO1)NC1[C@@H](O)C(OC2[C@@H](F)[C@H](O[C@H]3OC(CN)[C@@H](O)CC3N)C(N)C[C@H]2NC(=O)[C@@H](O)CCN)O[C@H](CO)[C@H]1O` (stereo partly drawn) [ABX5040, Tobra-AHB-F-Gua (S) morpholin-2-yl methyl] and `N=C(NC[C@H]1CNCCO1)NC1[C@@H](O)C(OC2[C@@H](F)[C@H](O[C@H]3OC(CN)[C@@H](O)CC3N)C(N)C[C@H]2NC(=O)[C@@H](O)CCN)O[C@H](CO)[C@H]1O` (stereo partly drawn) [ABX5043, Tobra-AHB-F-Gua (R) morpholin-2-yl methyl] cannot be ordered by MIC50: 1 µM (≈ 0.712 µg/mL) for the first, 0.5 to 1 µM (≈ 0.356 to 0.712 µg/mL) for the second.

`C[C@@H](N)CCNC(=N)NC1[C@@H](O)C(OC2[C@@H](F)[C@H](O[C@H]3OC(CN)[C@@H](O)CC3N)C(N)C[C@H]2NC(=O)[C@@H](O)CCN)O[C@H](CO)[C@H]1O` (stereo partly drawn) [ABX5047, Tobra-AHB-F-Gua (R) 3-amino-butyl] and `CNCCNC(=N)NC1[C@@H](O)C(OC2[C@@H](F)[C@H](O[C@H]3OC(CN)[C@@H](O)CC3N)C(N)C[C@H]2NC(=O)[C@@H](O)CCN)O[C@H](CO)[C@H]1O` (some centres unmarked) [ABX5038, Tobra-AHB-F-Gua 2-(methylamino)ethyl] are the same in MIC50: 0.5 µM (≈ 0.342 µg/mL) for the first, 0.5 µM (≈ 0.335 µg/mL) for the second.

First: N=C(N)NC1C(O)[C@@H](CO)OC(OC2C(F)[C@H](O[C@H]3OC(CN)[C@@H](O)CC3N)C(N)C[C@H]2NC(=O)[C@@H](O)CCN)[C@@H]1O (some centres unmarked) [ABX5006, Tobra-AHB-F-Gua]
Second: CC(C)(C)CCNC(=N)NC1[C@@H](O)C(OC2[C@@H](F)[C@H](O[C@H]3OC(CN)[C@@H](O)CC3N)C(N)C[C@H]2NC(=O)[C@@H](O)CCN)O[C@H](CO)[C@H]1O (some centres unmarked) [ABX5025, Tobra-AHB-F-Gua 2-tBu-ethyl]
The MIC50 of the first is 2-fold lower: 0.5 µM (≈ 0.306 µg/mL) for the first, 1 µM (≈ 0.697 µg/mL) for the second.

`N=C(NCC1CCCO1)NC1[C@@H](O)C(OC2[C@@H](F)[C@H](O[C@H]3OC(CN)[C@@H](O)CC3N)C(N)C[C@H]2NC(=O)[C@@H](O)CCN)O[C@H](CO)[C@H]1O` (some centres unmarked) [ABX5046, Tobra-AHB-F-Gua tetrahydrofuran-2-yl methyl] and `N=C(NC[C@@H]1CCCN1)NC1[C@@H](O)C(OC2[C@@H](F)[C@H](O[C@H]3OC(CN)[C@@H](O)CC3N)C(N)C[C@H]2NC(=O)[C@@H](O)CCN)O[C@H](CO)[C@H]1O` (stereo partly drawn) [ABX5026, Tobra-AHB-F-Gua (S) pyrrolidine-2-yl-methyl] are the same in MIC50: 1 µM (≈ 0.697 µg/mL) for the first, 1 µM (≈ 0.696 µg/mL) for the second.

Reference: US20220127297A1, “Novel Antibacterial 3"-Derivatives Of 4,6-Disubstituted 2,5-Dideoxystreptamine Aminoglycoside Antibiotics” (AGILeBiotics B.V., priority 2018, published 2022)
